The text below walks through data of US20210116454A1, “METHODS FOR TREATING A HEMATOLOGICAL CANCER AND THE USE OF COMPANION BIOMARKERS FOR 2-(2,6-DIOXOPIPERIDIN-3-YL)-4-((2-FLUORO-4-((3-MORPHOLINOAZETIDIN-1-YL)METHYL)BENZYL)AMINO)ISOINDOLINE-1,3-DIONE” (CELGENE CORPORATION, priority 2019, published 2021).

For one test, the system named is TMD8 cells. As to the kind of experiment: Western blot of substrates and downstream proteins. In kind it is cell-based. How it is done:
(§1) To confirm that the rapid degradation of substrates and induction of apoptosis by Compound 1 is not unique to SU-DHL2 cells, TMD8 (ABC cell line) and Karpas-422 (GCB-cell line) cells were treated with vehicle control (DMSO) or Compound 1 at the times and concentrations indicated (FIG. 6).
(§2) In a second experiment, we confirmed that Compound 1 (100 nM) treatment of TMD8 produced a large reduction of Aiolos, Ikaros, and ZFP91 at the 24-hour timepoint. […] In Karpas-422 cells, Compound 1 also produced a reduction of Aiolos, Ikaros, and ZFP91 at the 24-hour timepoint (FIG. 6, panel D). At the 48-hour timepoint, Compound 1 increased the abundance of the proliferation inhibitor p21 and the interferon-stimulated genes IRF7, IFIT3, and DDX58, and reduced the expression of MYC (FIG. 6, panel D).
(In general: A western blot detects proteins with antibodies after separation by electrophoresis.)

For the next test, the system named is Karpas-422 cells. The test can be described thus: Western blot of substrates and downstream proteins. In kind it is cell-based. The protocol:
as §1, §2

In the next test the target is cereblon (CRBN) (Homo sapiens, UniProt Q96SW2). The test can be described thus: Cereblon binding TR-FRET ligand competition assay. How it is done:
To investigate whether Compound 1 and its R-enantiomer Compound 2 could bind to cereblon, a short duration (10 to 20 minutes) ligand competition assay was used.
In general terms: Time-resolved FRET reads energy transfer from a long-lived donor to a nearby acceptor.

For a further test, the system named is SU-DHL-4. The test can be described thus: CellTiter-Glo (CTG) antiproliferative assay, 5-day. As to conditions: Homo sapiens, 120 h; SU-DHL-4, 5-day assay, n = 6. In kind it is cell-based. The protocol: To evaluate the activity of both Compound 1 and Compound 2 in DLBCL cells, a CellTiter-Glo (CTG) assay was performed to measure the antiproliferative activity.

Test [1] has as its system endothelial cells, T- and B-lymphocytes, coronary smooth muscle cells, and fibroblasts. The test can be described thus: BioMAP Diversity PLUS Panel, antiproliferative effects. In kind it is cell-based, human. The protocol:
The BioMAP Diversity PLUS Panel was assessed after treatment with Compound 1. The X-axis lists the quantitative protein-based biomarker readouts measured in each system. The Y-axis represents a log-transformed ratio of the biomarker readouts for the drug-treated sample (n=1) over vehicle controls (n≥6). The grey region around the Y-axis represents the 95% significance envelope generated from historical vehicle controls. Biomarker activities were annotated when 2 or more consecutive concentrations change in the same direction relative to vehicle controls, are outside of the significance envelope, and have at least one concentration with an effect size >20% (log 10 ratio >0.1). Antiproliferative effects are indicated by a thick grey arrow.
The activity of Compound 1 was profiled in a panel of human primary cell-based assays, modeling complex tissue and disease biology of organs (vasculature, immune system, skin, lung) and general tissue biology using the BioMAP System (DiscoveRx, Fremont, Calif.).
The BioMAP System consists of twelve primary human monoculture or co-culture systems in stimulated and non-stimulated control conditions (FIG. 4, panel A). When tested at 0.01, 0.1, 1, and 10 μM, Compound 1 mediated changes in key biomarker activities. […]

A further test concerns DoxoR cell lines. The test can be described thus: Doxorubicin-resistant (DoxoR) versus matching parental DLBCL lines. The note with it: DoxoR versus matching parental cells. In kind it is cell-based. How it is done: The activity of Compound 1 was also evaluated in cell lines with acquired resistance to doxorubicin (Table 4). Doxorubicin-resistant cell lines (DoxoR) were generated by culturing the parental cell lines in vitro with increasing concentrations of doxorubicin for a long period of time (˜9 to 18 months) until they were able to grow in the presence of a relatively high concentration of doxorubicin (1 μM). Matching parental (M-Parent) cells were generated by maintaining the parental cells in culture without treatment for the same amount of time (˜9 to 18 months). The growth-inhibitory effect of doxorubicin on parental cells and the corresponding resistant cells was evaluated by measuring the number of viable cells and extent of apoptosis by 7-AAD exclusion and Annexin V staining using flow cytometry.

Setting [2] is: TMD8, 100 nM, 24-hour timepoint.

Structures are written as SMILES.

In turn, `O=C1CC[C@H](N2C(=O)c3cccc(NCc4ccc(CN5CC(N6CCOCC6)C5)cc4F)c3C2=O)C(=O)N1` [Compound 1, (S)-2-(2,6-dioxopiperidin-3-yl)-4-((2-fluoro-4-((3-morpholinoazetidin-1-yl)methyl)benzyl)amino)isoindoline-1,3-dione] displayed a BCL6 reduction in the test on TMD8 cells (setting [2]) of 65%. This compound also came in with an IRF4 reduction in the test with TMD8 cells (setting [2]) of 90%. For the same compound, the MYC reduction amounted to 75% with TMD8 cells (setting [2]) and 50% with Karpas-422 cells (Karpas-422, after 72 hours). In addition, the “Ikaros, Aiolos, and ZFP91 protein expression” value in the test on TMD8 cells (TMD8, 10 and 100 nM, entire course of treatment) is on record as “complete suppression”; in the test on Karpas-422 cells (Karpas-422, 10 and 100 nM, entire course of treatment), “complete suppression”. For the same compound, the “higher binding affinity for CRBN compared to Compound 2” value on cereblon (CRBN) is given as “eleven-fold”. Further, the IC50 (usually the midpoint of a concentration-inhibition curve) at cereblon (CRBN) (10 to 20 minutes, n=5) came out at 860 ± 100 nM; with SU-DHL-4, 22 nM. Also, the “antiproliferative effects in BioMAP systems” value in test [1] is “selectively antiproliferative”.

As to `COc1cccc2c1C(=O)c1c(O)c3c(c(O)c1C2=O)C[C@@](O)(C(=O)CO)C[C@@H]3O[C@H]1C[C@H](N)[C@H](O)[C@H](C)O1` [Doxorubicin, reference compound], the “shifts in IC50 values for doxorubicin in DoxoR lines” value in the test with DoxoR cell lines is “more than 100 fold”.
